14 compounds from ChEMBL document CHEMBL1155458, “Synthesis, inhibitory activity of cholinesterases, and neuroprotective profile of novel 1,8-naphthyridine derivatives” (J Med Chem, 2010) can be followed below.

For data set [1], the system named is SH-SY5Y. The experiment in a line: Neuroprotective activity in human SH-SY5Y cells assessed as protection against okadaic acid-induced cell death at 1 uM after 24 hrs by MTT assay. The data set is classed as functional. A general note: Tetrazolium dyes change colour on reduction, which living cells bring about.
Data set [2] has as its system SH-SY5Y. Put plainly: Cytotoxicity against human SH-SY5Y cells assessed as LDH release at 1 uM after 24 hrs by spectrophotometry (reference value: 17.7%). Format: cell-based. On the technique in general: Release of lactate dehydrogenase indicates damage to the cell membrane.
For data set [3], the target named is T1, Acetylcholinesterase (Bos taurus) (UniProt P23795).
T1 sequence (whole entry): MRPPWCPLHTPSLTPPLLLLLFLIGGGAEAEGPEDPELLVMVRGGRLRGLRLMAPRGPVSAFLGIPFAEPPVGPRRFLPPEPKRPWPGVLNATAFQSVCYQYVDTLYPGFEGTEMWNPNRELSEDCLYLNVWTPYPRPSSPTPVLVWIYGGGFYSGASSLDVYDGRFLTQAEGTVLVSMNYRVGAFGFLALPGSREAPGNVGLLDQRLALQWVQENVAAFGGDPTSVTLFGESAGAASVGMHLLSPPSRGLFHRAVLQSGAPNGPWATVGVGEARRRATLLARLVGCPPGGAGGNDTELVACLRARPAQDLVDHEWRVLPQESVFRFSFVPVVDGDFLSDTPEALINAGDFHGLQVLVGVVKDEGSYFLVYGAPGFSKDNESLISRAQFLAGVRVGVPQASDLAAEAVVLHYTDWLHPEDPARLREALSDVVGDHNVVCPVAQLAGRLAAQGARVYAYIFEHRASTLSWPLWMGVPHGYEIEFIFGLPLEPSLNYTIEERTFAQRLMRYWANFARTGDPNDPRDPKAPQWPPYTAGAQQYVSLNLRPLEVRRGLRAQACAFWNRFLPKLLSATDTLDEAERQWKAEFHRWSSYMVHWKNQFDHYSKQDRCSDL
Put plainly: Displacement of propidium iodide from AChE in bovine erythrocytes at 10 uM after 15 mins by fluorescence plate reader. Format: cell-based.

In the next data set the target is Cholinesterase (Equus caballus, UniProt P81908).
Cholinesterase, sequence (P81908 whole entry): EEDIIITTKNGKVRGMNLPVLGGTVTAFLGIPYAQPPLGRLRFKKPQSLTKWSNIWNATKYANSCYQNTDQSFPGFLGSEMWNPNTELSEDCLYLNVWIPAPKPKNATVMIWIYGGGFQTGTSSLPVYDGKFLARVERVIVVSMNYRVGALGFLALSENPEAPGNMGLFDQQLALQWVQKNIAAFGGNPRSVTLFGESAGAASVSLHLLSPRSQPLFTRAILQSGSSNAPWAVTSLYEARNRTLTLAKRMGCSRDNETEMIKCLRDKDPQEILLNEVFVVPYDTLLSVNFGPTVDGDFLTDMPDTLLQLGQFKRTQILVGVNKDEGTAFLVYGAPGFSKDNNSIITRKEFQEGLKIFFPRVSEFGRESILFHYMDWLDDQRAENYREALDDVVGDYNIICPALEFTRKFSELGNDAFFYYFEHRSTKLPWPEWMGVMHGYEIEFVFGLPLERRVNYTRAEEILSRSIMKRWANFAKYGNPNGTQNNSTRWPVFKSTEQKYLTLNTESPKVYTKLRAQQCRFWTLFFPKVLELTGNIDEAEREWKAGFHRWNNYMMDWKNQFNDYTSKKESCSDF
The subject of data set [4] is SH-SY5Y. The experiment in a line: Neuroprotective activity in human SH-SY5Y cells assessed as protection against rotenone/oligomycin A-induced cell death at 1 uM after 24 hrs by LDH release assay. Format: functional.
The target of data set [5] is T2, Acetylcholinesterase (Homo sapiens, UniProt P22303).
T2 sequence (P22303 whole entry): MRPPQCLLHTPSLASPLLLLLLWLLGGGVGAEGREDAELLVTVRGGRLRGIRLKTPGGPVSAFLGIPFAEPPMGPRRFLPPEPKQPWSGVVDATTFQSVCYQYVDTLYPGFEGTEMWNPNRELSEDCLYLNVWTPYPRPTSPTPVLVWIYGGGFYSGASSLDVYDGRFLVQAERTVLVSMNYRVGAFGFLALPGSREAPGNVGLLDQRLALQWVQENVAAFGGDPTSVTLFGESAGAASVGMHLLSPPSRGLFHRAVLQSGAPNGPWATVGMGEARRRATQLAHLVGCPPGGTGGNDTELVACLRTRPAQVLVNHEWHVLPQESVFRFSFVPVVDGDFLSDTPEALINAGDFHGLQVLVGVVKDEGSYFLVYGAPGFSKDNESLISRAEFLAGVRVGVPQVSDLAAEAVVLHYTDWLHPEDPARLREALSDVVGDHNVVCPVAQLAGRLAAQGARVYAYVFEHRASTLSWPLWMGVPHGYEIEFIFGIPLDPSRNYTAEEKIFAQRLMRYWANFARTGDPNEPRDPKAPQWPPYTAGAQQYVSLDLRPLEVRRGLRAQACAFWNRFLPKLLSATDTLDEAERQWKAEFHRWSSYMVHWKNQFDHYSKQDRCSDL
Description: Inhibition of AChE in human erythrocytes by Ellman's method
For data set [6], the target named is Acetylcholinesterase (Electrophorus electricus, UniProt O42275).
Acetylcholinesterase (Electrophorus electricus, UniProt O42275), sequence (O42275 whole entry): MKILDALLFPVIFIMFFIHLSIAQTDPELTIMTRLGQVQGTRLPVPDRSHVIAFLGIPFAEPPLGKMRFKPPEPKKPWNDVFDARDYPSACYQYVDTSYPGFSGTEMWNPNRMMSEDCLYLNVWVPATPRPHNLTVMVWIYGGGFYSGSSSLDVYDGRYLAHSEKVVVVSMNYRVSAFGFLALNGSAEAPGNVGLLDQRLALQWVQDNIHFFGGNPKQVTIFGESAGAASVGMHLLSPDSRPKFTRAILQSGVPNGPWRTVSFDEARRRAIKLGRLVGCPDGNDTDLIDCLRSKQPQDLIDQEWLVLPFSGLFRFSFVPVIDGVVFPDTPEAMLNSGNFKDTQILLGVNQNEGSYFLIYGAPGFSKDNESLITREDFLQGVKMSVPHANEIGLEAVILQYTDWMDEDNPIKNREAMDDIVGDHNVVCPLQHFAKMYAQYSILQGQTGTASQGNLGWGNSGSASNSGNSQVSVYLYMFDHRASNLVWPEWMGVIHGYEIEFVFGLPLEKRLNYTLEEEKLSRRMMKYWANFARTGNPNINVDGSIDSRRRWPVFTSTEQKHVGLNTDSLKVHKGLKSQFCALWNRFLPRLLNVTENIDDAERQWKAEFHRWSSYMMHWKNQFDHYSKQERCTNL
Description: Inhibition of electric eel AChE by Ellman's method
Data set [7] has as its target T3, Acetylcholinesterase (Bos taurus, UniProt P23795).
T3 sequence (P23795 whole entry): T1 sequence (whole entry)
The experiment in a line: biochemical.
Description: Displacement of propidium iodide from AChE in bovine erythrocytes after 15 mins by fluorescence plate reader

Data set [8] concerns the target T1, Acetylcholinesterase (Bos taurus). The following applies: 1 mM.
Description: Displacement of propidium iodide from AChE in bovine erythrocytes at 1 mM after 15 mins by fluorescence plate reader
The species entered for data set [9] is Rattus norvegicus. Put plainly: Prevention of okadaic acid-induced inhibition of PP2A in rat brain cortex assessed as increase in inorganic phosphorus release at 1 uM after 1 hr by malachite green assay relative to control. Format: tissue-based. The arrangement: scale not given: the % may be the effect or the level left.
The species named for data set [10] is Rattus norvegicus. The experiment in a line: Prevention of okadaic acid-induced inhibition of PP2A in rat brain cortex assessed as increase in inorganic phosphorus release at 10 uM after 1 hr by malachite green assay relative to control. The arrangement: scale not given: the % may be the effect or the level left. The data set is classed as tissue-based.
Data set [11] addresses T2, Acetylcholinesterase. The experiment in a line: Inhibition of AChE (unknown orign) by Lineweaver-Burke plot.
The subject of data set [12] is Hippocampus. The experiment in a line: Neuroprotective activity in isolated rat brain hippocampal slices assessed as protection against oxygen and glucose deprivation-induced cell death at 30 uM after 24 hrs by MTT assay. The data set is classed as functional.
Data set [13] is filed under the species Rattus norvegicus. Put plainly: Prevention of okadaic acid-induced inhibition of PP2A in rat brain cortex assessed as increase in inorganic phosphorus release after 1 hr by malachite green assay relative to control. The data set is classed as tissue-based.
Data set [14] has as its system SH-SY5Y. The experiment in a line: Neuroprotective activity in human SH-SY5Y cells assessed as protection against amyloid beta(1-42)-induced cell death after 24 hrs by MTT assay. The data set is classed as functional, cell-based.
Data set [15] relates to SH-SY5Y. Put plainly: Neuroprotective activity in human SH-SY5Y cells assessed as protection against amyloid beta(1-42)-induced cell death at 10 uM after 24 hrs by MTT assay. The data set is classed as functional.
For data set [16], the system named is SH-SY5Y. The experiment in a line: Neuroprotective activity in human SH-SY5Y cells assessed as protection against amyloid beta(1-42)-induced cell death at 1 uM after 24 hrs by MTT assay. Format: functional.
The subject of data set [17] is Hippocampus. The experiment in a line: Neuroprotective activity in isolated rat brain hippocampal slices assessed as protection against oxygen and glucose deprivation-induced cell death after 24 hrs by MTT assay. The data set is classed as functional, tissue-based.

Take `C=C1[C@@H](O)[C@@H]2O[C@]3(CC[C@H](/C=C/[C@@H](C)[C@@H]4CC(C)=C[C@@]5(O[C@H](C[C@@](C)(O)C(=O)O)CC[C@H]5O)O4)O3)CC[C@H]2O[C@@H]1[C@@H](O)C[C@H](C)[C@H]1O[C@@]2(CCCCO2)CC[C@H]1C` [OKADAIC ACID]: the Activity with SH-SY5Y [1] is on record as 80.5%.

The inhibition is the share of the control response that was lost under treatment. As a reminder, the IC50 is the concentration needed to halve the response being measured. Regarding `CCOC(=O)c1cc2c(N)c3c(nc2nc1C)CCC3`, the Activity came to 12.3% in the data set with SH-SY5Y [2], 28.7% with SH-SY5Y [4] and 39.5% with SH-SY5Y [1]. Further, the inhibition in [3] is 20%. Besides, the IC50 turned out to be 39000 nM on Cholinesterase, 2100 nM at Acetylcholinesterase [5], 350 nM against Acetylcholinesterase [6] and 350 nM against Acetylcholinesterase [7].

With `CCOC(=O)c1c(C)nc2nc3c(c(N)c2c1-c1ccccc1)CCCC3`, the Activity in the data set with SH-SY5Y [4] turned out to be 26.8%; in the data set on SH-SY5Y [1], 22.1%. This compound had an IC50 against Acetylcholinesterase [6] of 800 nM.

For the compound `COC(=O)c1cc2c(N)c3c(nc2nc1C)CCCC3`, the Activity turned out to be 11.6% in the data set on SH-SY5Y [2], 25.8% with SH-SY5Y [4] and 44.8% in the data set on SH-SY5Y [1]. This compound also registered an inhibition in data set [3] of 16%. Also, the IC50 against Cholinesterase was determined as 3400 nM; against Acetylcholinesterase [5] it was 1000 nM; against Acetylcholinesterase [6] it was 93 nM; on Acetylcholinesterase [7] it was 93 nM.

On to `CC(=O)N[C@@H](CS)C(=O)O` [ACETYLCYSTEINE], for which the Activity with SH-SY5Y [4] was determined as 33.4%.

For the compound `CCOC(=O)c1cc2c(N)c3c(nc2nc1C)CCCCC3`, the Activity in the data set on SH-SY5Y [2] turned out to be 19.9%; in the data set with SH-SY5Y [4], 31.1%; in the data set with SH-SY5Y [1], 28.9%. The inhibition in data set [3] turned out to be 10%. The IC50 against Cholinesterase was found to be 2100 nM; on Acetylcholinesterase [5], 2000 nM; against Acetylcholinesterase [6], 310 nM; on Acetylcholinesterase [7], 310 nM.

In the case of `COC(=O)c1cc2c(N)c3c(nc2nc1C)CCCCC3`, the Activity came to 20.4% in the data set on SH-SY5Y [2], 36.1% in the data set on SH-SY5Y [4] and 38.7% with SH-SY5Y [1]. This compound also showed an inhibition in [3] of 11%. Besides, the IC50 on Cholinesterase is 490 nM; against Acetylcholinesterase [5], 2000 nM; against Acetylcholinesterase [6], 360 nM; at Acetylcholinesterase [7], 360 nM.

Consider `C=CC[N+](C)(C)c1ccc(CCC(=O)CCc2ccc([N+](C)(C)CC=C)cc2)cc1`, for which the inhibition in data set [8] stood at 29%.

Turning to `COc1ccc2[nH]cc(CCNC(C)=O)c2c1` [MELATONIN], the Activity in the data set with SH-SY5Y [4] worked out at 33.8%.

With `COc1ccc2c3c1O[C@H]1C[C@@H](O)C=C[C@@]31CCN(C)C2` [GALANTAMINE], the Activity in the data set on SH-SY5Y [1] came to 0%.

Consider `COC(=O)c1cc2c(N)c3c(nc2nc1C)CCC3`, for which the Activity in the data set with SH-SY5Y [2] is 22.1%; in the data set with SH-SY5Y [4] it was 37.5%; in the data set on SH-SY5Y [1], 36.5%. In data set [3], the inhibition is 10%. Also, the IC50 is 5000 nM on Cholinesterase, 1900 nM at Acetylcholinesterase [5], 120 nM against Acetylcholinesterase [6] and 120 nM against Acetylcholinesterase [7].

The Ki is a dissociation constant, usually derived from enzyme kinetics or from competition with a known ligand. One may read the EC50 as the concentration at which the effect is half-maximal. On to `CCOC(=O)c1cc2c(N)c3c(nc2nc1C)CCCC3`, for which the Activity with SH-SY5Y [2] is 20.9%; in the data set filed under Rattus norvegicus [9], 77%; in the data set listed under Rattus norvegicus [10], 91%; with Hippocampus [12] it was 65.5%; in the data set listed under Rattus norvegicus [13] it was “Dose-dependent effect”; in the data set on SH-SY5Y [4] it was 48.4%. Further, the Activity entry in the data set on SH-SY5Y [14] is “Dose-dependent effect”; in the data set with SH-SY5Y [15], 10%; in the data set with SH-SY5Y [16] it was 54%; in the data set with SH-SY5Y [1], 75%; in the data set on Hippocampus [17], “Dose-dependent effect”. The compound also displayed an inhibition in data set [3] of 10%. This compound also had a Ki at Acetylcholinesterase [11] of 24 nM. In addition, the EC50 in the data set with Hippocampus [17] turned out to be 6000 nM. The compound further had an IC50 on Acetylcholinesterase [7] of 60 nM.

For `COC(=O)c1cc2c(N)c3c(nc2nc1C)CCCCCC3`, the Activity in the data set with SH-SY5Y [2] is recorded as 21.6%; in the data set with SH-SY5Y [4], 42.3%; with SH-SY5Y [1], 26.2%. The inhibition in [3] turned out to be 16%. In addition, the IC50 against Cholinesterase worked out at 4070 nM; against Acetylcholinesterase [5], 1800 nM; against Acetylcholinesterase [6], 250 nM; on Acetylcholinesterase [7], 250 nM.

With `CCOC(=O)c1cc2c(N)c3c(nc2nc1C)CCCCCC3`, the values for the Activity in the data set on SH-SY5Y [2], with SH-SY5Y [4] and in the data set on SH-SY5Y [1] were 12.7%, 32.6% and 33.8%, respectively. Also, the inhibition in [3] is 10%. For the same compound, the IC50 turned out to be 5300 nM against Cholinesterase, 1800 nM on Acetylcholinesterase [5], 400 nM against Acetylcholinesterase [6] and 400 nM against Acetylcholinesterase [7].
